Source: US12077503B2, “Substituted cyclic amides and their use as herbicides” (FMC CORPORATION, priority 2015, dated 2024)

How the values were obtained:
Format in all cases: in vivo
Kochia (Kochia scoparia) = assay: Test A preemergence; conditions: Bassia scoparia, pre-emergence, 240 h
How it was run: (§1)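 Compounds were formulated in a non-phytotoxic solvent mixture with surfactant and applied as a preemergence directed soil spray after seeding, or sprayed postemergence over plants 2 to 10 cm tall at the one- to two-leaf stage. Evaluation after about 10 d compared treated with untreated controls, using a scale from 0 (no effect) to 100 (complete control).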

[1] = tested on: giant foxtail (Setaria faberii); assay: Test A preemergence; conditions: Setaria faberi, pre-emergence, 240 h
How it was run: as §1

[2] = tested on: ryegrass, Italian (Italian ryegrass, Lolium multiflorum); assay: Test A preemergence; conditions: Lolium multiflorum, pre-emergence, 240 h
How it was run: as §1

[3] = tested on: pigweed (Amaranthus retroflexus); assay: Test A preemergence; conditions: Amaranthus retroflexus, pre-emergence, 240 h
[4] = tested on: ragweed (common ragweed, Ambrosia elatior); assay: Test A preemergence; conditions: Ambrosia artemisiifolia, pre-emergence, 240 h
How it was run: as §1

[5] = tested on: barnyardgrass (Echinochloa crus-galli); assay: Test A preemergence; conditions: Echinochloa crus-galli, pre-emergence, 240 h
How it was run: as §1

[6] = tested on: Galium (catchweed bedstraw, Galium aparine); assay: Test A postemergence; conditions: Galium, post-emergence, 240 h, read-out: Plant response rating, Galium
How it was run: as §1

[7] = tested on: giant foxtail (Setaria faberii); assay: Test A postemergence; conditions: Setaria faberi, post-emergence, 240 h, read-out: Plant response rating, Foxtail, Giant
How it was run: as §1

[8] = tested on: ryegrass, Italian (Italian ryegrass, Lolium multiflorum); assay: Test A postemergence; conditions: Lolium multiflorum, post-emergence, 240 h, read-out: Plant response rating, Ryegrass, Italian
How it was run: as §1

[9] = tested on: blackgrass (Alopecurus myosuroides); assay: Test A postemergence; conditions: Alopecurus myosuroides, post-emergence, 240 h, read-out: Plant response rating, Blackgrass
How it was run: as §1

corn (Zea mays) = assay: Test A postemergence; conditions: Zea mays, post-emergence, 240 h
How it was run: as §1

[10] = tested on: pigweed (Amaranthus retroflexus); assay: Test A postemergence; conditions: Amaranthus retroflexus, post-emergence, 240 h, read-out: Plant response rating, Pigweed
How it was run: as §1

[11] = tested on: ragweed (common ragweed, Ambrosia elatior); assay: Test A postemergence; conditions: Ambrosia artemisiifolia, post-emergence, 240 h, read-out: Plant response rating, Ragweed
How it was run: as §1

[12] = tested on: wheat (Triticum aestivum); assay: Test A postemergence; conditions: Triticum aestivum, post-emergence, 240 h, read-out: Plant response rating, Wheat
How it was run: as §1

[13] = tested on: barnyardgrass (Echinochloa crus-galli); assay: Test A postemergence; conditions: Echinochloa crus-galli, post-emergence, 240 h, read-out: Plant response rating, Barnyardgrass
How it was run: as §1

[14] = 125 g ai/ha, Postemergence, visual injury after approximately 10 d, 0 to 100 scale where 0 is no effect and 100 is complete control
[15] = 500 g ai/ha, postemergence, visual injury, 0 to 100 scale (0 no effect, 100 complete control), approx. 10 d

O=C1NC[C@H](c2ccc3c(c2)OCO3)[C@H]1C(=O)Nc1ccc(F)cc1F [Compound 1026]
pest or weed control at 125 g/ha (Kochia (Kochia scoparia); 125 g ai/ha, Preemergence, visual injury rating after approximately 10 d, read-out: Kochia plant response rating (0 to 100 scale, 0 is no effect, 100 is complete control)): 30%
pest or weed control at 500 g/ha (Kochia (Kochia scoparia); 500 g ai/ha, preemergence, visual injury rating about 10 d after treatment, 0 to 100 scale (0 no effect, 100 complete control), read-out: Kochia plant response rating): 80%
pest or weed control at 125 g/ha ([1]; 125 g ai/ha, Preemergence, visual injury rating after approximately 10 d, read-out: Foxtail, Giant plant response rating (0 to 100 scale, 0 is no effect, 100 is complete control)): 30%
pest or weed control at 500 g/ha ([1]; 500 g ai/ha, preemergence, visual injury rating about 10 d after treatment, 0 to 100 scale (0 no effect, 100 complete control), read-out: Foxtail, Giant plant response rating): 90%
pest or weed control at 125 g/ha ([2]; 125 g ai/ha, Preemergence, visual injury rating after approximately 10 d, read-out: Ryegrass, Italian plant response rating (0 to 100 scale, 0 is no effect, 100 is complete control)): 0%
pest or weed control at 500 g/ha ([2]; 500 g ai/ha, preemergence, visual injury rating about 10 d after treatment, 0 to 100 scale (0 no effect, 100 complete control), read-out: Ryegrass, Italian plant response rating): 0%
pest or weed control at 125 g/ha ([3]; 125 g ai/ha, Preemergence, visual injury rating after approximately 10 d, read-out: Pigweed plant response rating (0 to 100 scale, 0 is no effect, 100 is complete control)): 0%
pest or weed control at 500 g/ha ([3]; 500 g ai/ha, preemergence, visual injury rating about 10 d after treatment, 0 to 100 scale (0 no effect, 100 complete control), read-out: Pigweed plant response rating): 0%
pest or weed control at 125 g/ha ([4]; 125 g ai/ha, Preemergence, visual injury rating after approximately 10 d, read-out: Ragweed plant response rating (0 to 100 scale, 0 is no effect, 100 is complete control)): 50%
pest or weed control at 500 g/ha ([4]; 500 g ai/ha, preemergence, visual injury rating about 10 d after treatment, 0 to 100 scale (0 no effect, 100 complete control), read-out: Ragweed plant response rating): 50%
pest or weed control at 125 g/ha ([5]; 125 g ai/ha, Preemergence, visual injury rating after approximately 10 d, read-out: Barnyardgrass plant response rating (0 to 100 scale, 0 is no effect, 100 is complete control)): 90%
pest or weed control at 500 g/ha ([5]; 500 g ai/ha, preemergence, visual injury rating about 10 d after treatment, 0 to 100 scale (0 no effect, 100 complete control), read-out: Barnyardgrass plant response rating): 90%
pest or weed control at 125 g/ha [6, 14]: 0%
pest or weed control at 500 g/ha [6, 15]: 50%
pest or weed control at 125 g/ha [7, 14]: 0%
pest or weed control at 500 g/ha [7, 15]: 20%
pest or weed control at 125 g/ha [8, 14]: 0%
pest or weed control at 500 g/ha [8, 15]: 0%
pest or weed control at 125 g/ha [9, 14]: 0%
pest or weed control at 500 g/ha [9, 15]: 0%
Corn plant response rating (crop injury, 0 = no effect, 100 = complete kill) at 125 g/ha (corn (Zea mays); [14]): 0%
Corn plant response rating (crop injury, 0 = no effect, 100 = complete kill) at 500 g/ha (corn (Zea mays); [15]): 30%
pest or weed control at 125 g/ha [10, 14]: 0%
pest or weed control at 500 g/ha [10, 15]: 0%
pest or weed control at 125 g/ha [11, 14]: 0%
pest or weed control at 500 g/ha [11, 15]: 0%
plant injury at 125 g/ha [12, 14]: 20%
plant injury at 500 g/ha [12, 15]: 30%
pest or weed control at 125 g/ha [13, 14]: 70%
pest or weed control at 500 g/ha [13, 15]: 90%
